Earlier results in US20030101005A1, “Crystals and structures of perosamine synthase homologs” (priority 2001, published 2003).

Biological target: T1, His-tag RfbE fusion protein (GDP-4-keto-6-deoxy-D-mannose-4-aminotransferase) (Vibrio cholerae, UniProt Q06953)
T1 construct: His-tag
Details: substrate or cosubstrate of His-tag RfbE fusion protein

T1 sequence (Q06953 whole entry, the tested form may be a part): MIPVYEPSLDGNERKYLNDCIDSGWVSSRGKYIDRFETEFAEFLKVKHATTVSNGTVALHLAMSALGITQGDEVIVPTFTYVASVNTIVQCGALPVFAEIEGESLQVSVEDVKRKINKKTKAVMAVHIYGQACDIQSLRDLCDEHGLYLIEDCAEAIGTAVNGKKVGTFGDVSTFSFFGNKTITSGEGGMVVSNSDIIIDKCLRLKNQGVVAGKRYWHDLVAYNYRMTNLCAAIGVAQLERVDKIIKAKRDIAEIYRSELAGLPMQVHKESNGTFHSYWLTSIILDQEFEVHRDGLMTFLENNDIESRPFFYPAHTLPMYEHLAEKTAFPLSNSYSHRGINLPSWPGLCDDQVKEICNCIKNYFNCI

Compound	K(m) [mM]	V(max) [nkat/mg protein]
CC1OC(OP(=O)(O)OP(=O)(O)OCC2OC(n3cnc4c(=O)[nH]c(N)nc43)C(O)C2O)C(O)C(O)C1=O [GDP-4-keto-6-deoxy-D-mannose]	0.06	38
N[C@@H](CCC(=O)O)C(=O)O [L-glutamate]	0.1	42
